Experimental data taken from ChEMBL document CHEMBL6177994 (J Med Chem, 2025).
Calls of active or inactive are those of the source. The rule behind the calls is not given here.

Assays:
[1] = Half life in male cynomolgus monkey at 1 mg/kg, iv measured up to 24 hrs by LC-MS/MS analysis; format: ADME, organism-based, Macaca fascicularis; details: in vivo
[2] = biological target: Cytochrome P450 2B6 (Homo sapiens, UniProt P20813); assay: Inhibition of CYP2B6 in human liver microsomes using bupropion as substrate at 10 uM incubated for 20 mins in presence of NADPH by LC/MS analysis; format: ADME, Microsome
Cytochrome P450 2B6, sequence (P20813 whole entry): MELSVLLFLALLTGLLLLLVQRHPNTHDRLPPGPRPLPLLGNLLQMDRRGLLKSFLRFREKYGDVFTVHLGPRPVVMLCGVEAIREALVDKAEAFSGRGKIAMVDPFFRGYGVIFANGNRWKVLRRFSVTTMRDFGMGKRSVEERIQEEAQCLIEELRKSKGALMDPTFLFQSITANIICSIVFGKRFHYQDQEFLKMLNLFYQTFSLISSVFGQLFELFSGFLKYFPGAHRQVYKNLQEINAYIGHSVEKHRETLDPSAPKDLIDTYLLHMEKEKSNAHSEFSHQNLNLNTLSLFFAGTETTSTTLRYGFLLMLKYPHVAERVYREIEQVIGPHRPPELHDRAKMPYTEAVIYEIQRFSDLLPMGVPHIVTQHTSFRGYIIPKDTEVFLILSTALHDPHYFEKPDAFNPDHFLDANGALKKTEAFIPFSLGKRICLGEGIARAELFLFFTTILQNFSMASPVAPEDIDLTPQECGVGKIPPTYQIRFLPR

[3] = Metabolic stability in mouse liver microsomes assessed as intrinsic clearance at 1 uM preincubated for 3 mins with NADPH and measured up to 60 mins by LC-MS/MS analysis; format: ADME, Microsome; details: time < 63 min, read-out: CLH
[4] = Stability in mouse plasma assessed as half life at 1 uM measured up to 120 mins by LC-MS/MS analysis; format: ADME, cell-free
[5] = system: HPAC; assay: Antiproliferative activity against human HPAC cells harbouring KRAS G12D mutant assessed as inhibition of cell growth measured after 72 hrs by Cell titer glo method; format: functional, cell-based
[6] = biological target: Protein cereblon/GTPase NRas (Homo sapiens) (UniProt P01111+Q96SW2); assay: PROTAC activity at CRBN/NRAS in human MKN-1 cells assessed as induction of […] 0.061 to 1000 nM measured after 24 hrs by immunoblot analysis; format: cell-based; details: dose 0.061-1000 nM
Protein cereblon/GTPase NRas (Homo sapiens), sequence (P01111 whole entry, looked up): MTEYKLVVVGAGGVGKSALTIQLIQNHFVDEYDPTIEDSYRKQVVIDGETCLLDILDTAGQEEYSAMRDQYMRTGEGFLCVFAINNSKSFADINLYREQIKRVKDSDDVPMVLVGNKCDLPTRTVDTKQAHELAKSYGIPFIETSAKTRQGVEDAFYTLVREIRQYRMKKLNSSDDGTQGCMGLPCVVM
Protein cereblon/GTPase NRas (Homo sapiens), sequence (Q96SW2 whole entry, looked up): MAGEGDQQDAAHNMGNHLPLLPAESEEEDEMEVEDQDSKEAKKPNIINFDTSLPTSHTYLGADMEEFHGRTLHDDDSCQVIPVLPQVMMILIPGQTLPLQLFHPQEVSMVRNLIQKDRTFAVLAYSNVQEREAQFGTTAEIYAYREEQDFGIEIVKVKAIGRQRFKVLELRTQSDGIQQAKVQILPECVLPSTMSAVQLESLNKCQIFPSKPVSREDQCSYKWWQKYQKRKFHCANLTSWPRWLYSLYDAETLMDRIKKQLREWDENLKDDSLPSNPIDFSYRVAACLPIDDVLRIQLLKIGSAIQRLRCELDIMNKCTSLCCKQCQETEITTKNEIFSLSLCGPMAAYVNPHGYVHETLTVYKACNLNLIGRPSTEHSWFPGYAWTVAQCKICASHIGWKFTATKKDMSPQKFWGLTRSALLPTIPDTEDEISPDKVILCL

[7] = Antitumor activity against human PK-59 cells xenografted in female Balb/c nude mouse model assessed as tumor growth inhibition at 1 mg/kg, iv QW measured after 28 days relative to control; format: functional; details: PK-59, 672 h, time 28 day, read-out: TGI
[8] = Toxicity in female Balb/c nude mouse xenografted with human GP2d cells assessed as change in body weight at 1 to 10 mg/kg, iv Q2W measured after 28 days; format: organism-based; details: in vivo, 672 h, dose 1-10 mg/kg, time 28 day
[9] = system: HEK293; assay: Antiproliferative activity against HEK293 cells harbouring wild type KRAS assessed as inhibition of cell growth measured after 72 hrs by Cell titer glo method; format: toxicity, cell-based; details: human, hek293, 72 h
[10] = Volume of distribution at steady state in male cynomolgus monkey at 1 mg/kg, iv measured up to 24 hrs by LC-MS/MS analysis; format: ADME, organism-based, Macaca fascicularis; details: in vivo, read-out: Vdss
[11] = system: A-427; assay: Antitumor activity against human A-427 cells harbouring KRAS G12D mutant xenografted in female Balb/c nude mouse model assessed as tumor regression at 1 to 10 mg/kg, iv QW administered weekly and measured after 28 days relative to control; format: functional; details: dose 1-10 mg/kg, time 28 day
[12] = system: Protein cereblon/GTPase KRas (Homo sapiens), P01116+Q96SW2 [G12D]; assay: In vivo PROTAC activity at CRBN/KRAS G12D mutant in male Balb/c nude mouse xenografted with human GP2d cells assessed as inhibition of ERK phosphorylation level at 10 mg/kg, iv measured after 7 days; format: functional, organism-based; details: time 7.0 day
Protein cereblon/GTPase KRas (Homo sapiens), P01116+Q96SW2 [G12D], sequence (P01116 whole entry G12D): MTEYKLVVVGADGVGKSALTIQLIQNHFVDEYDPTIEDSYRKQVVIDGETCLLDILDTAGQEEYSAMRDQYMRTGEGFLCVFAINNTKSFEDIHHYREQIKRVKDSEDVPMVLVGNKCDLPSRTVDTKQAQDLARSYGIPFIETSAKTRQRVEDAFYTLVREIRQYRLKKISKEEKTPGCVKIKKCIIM
Protein cereblon/GTPase KRas (Homo sapiens), P01116+Q96SW2 [G12D], sequence (Q96SW2 whole entry partner): as the sequence (Q96SW2 whole entry, looked up) above

[13] = system: CCRF-CEM; assay: Antitumor activity against human CCRF-CEM cells harbouring KRAS G12D mutant xenografted in female Balb/c nude mouse model assessed as tumor regression at 1 to 10 mg/kg, iv QW administered weekly and measured after 28 days; format: functional, organism-based; details: dose 1-10 mg/kg, time 28.0 day
[14] = biological target: Cytochrome P450 2C8 (Homo sapiens, UniProt P10632); assay: Inhibition of CYP2C8 in human liver microsomes using amodiaquine as substrate at 10 uM incubated for 20 mins in presence of NADPH by LC/MS analysis; format: ADME, Microsome
Cytochrome P450 2C8, sequence (P10632 whole entry): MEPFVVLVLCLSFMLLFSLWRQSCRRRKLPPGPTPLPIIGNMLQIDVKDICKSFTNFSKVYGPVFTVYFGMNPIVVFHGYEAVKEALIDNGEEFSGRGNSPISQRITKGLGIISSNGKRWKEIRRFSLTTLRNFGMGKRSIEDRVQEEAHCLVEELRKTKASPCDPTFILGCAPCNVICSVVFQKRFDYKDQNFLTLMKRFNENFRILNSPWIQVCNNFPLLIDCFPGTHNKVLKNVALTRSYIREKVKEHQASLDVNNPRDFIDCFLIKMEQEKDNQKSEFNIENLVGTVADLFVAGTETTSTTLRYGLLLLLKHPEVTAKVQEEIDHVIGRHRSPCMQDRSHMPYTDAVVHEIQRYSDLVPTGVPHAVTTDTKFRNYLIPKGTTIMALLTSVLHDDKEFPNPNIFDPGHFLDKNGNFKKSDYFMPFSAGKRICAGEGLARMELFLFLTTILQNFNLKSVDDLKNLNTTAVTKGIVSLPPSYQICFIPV

[15] = system: SNU-407; assay: Antitumor activity against human SNU-407 cells harbouring KRAS G12D mutant xenografted in female Balb/c nude mouse model assessed as tumor regression at 1 to 10 mg/kg, iv QW administered weekly and measured after 28 days; format: functional, organism-based; details: dose 1-10 mg/kg, time 28.0 day
[16] = Metabolic stability in monkey liver microsomes assessed as intrinsic clearance at 1 uM preincubated for 3 mins with NADPH and measured up to 60 mins by LC-MS/MS analysis; format: ADME, Macaca mulatta, Microsome; details: rhesus monkey, time < 63 min, read-out: CLH
[17] = system: Protein cereblon/GTPase KRas (Homo sapiens), P01116+Q96SW2 [G12D]; assay: In vivo PROTAC activity at CRBN/KRAS G12D mutant in male Balb/c nude mouse xenografted with human GP2d cells assessed as degradation of KRAS G12D mutant at 10 mg/kg, iv measured after 7 days relative to control; format: functional, organism-based; details: time 7.0 day
[18] = biological target: Cytochrome P450 1A2 (Homo sapiens, UniProt P05177); assay: Inhibition of CYP1A2 in human liver microsomes using phenacetin as substrate at 10 uM incubated for 15 mins in presence of NADPH by LC/MS analysis; format: ADME, Microsome; details: 0.25 h
Cytochrome P450 1A2, sequence (P05177 whole entry): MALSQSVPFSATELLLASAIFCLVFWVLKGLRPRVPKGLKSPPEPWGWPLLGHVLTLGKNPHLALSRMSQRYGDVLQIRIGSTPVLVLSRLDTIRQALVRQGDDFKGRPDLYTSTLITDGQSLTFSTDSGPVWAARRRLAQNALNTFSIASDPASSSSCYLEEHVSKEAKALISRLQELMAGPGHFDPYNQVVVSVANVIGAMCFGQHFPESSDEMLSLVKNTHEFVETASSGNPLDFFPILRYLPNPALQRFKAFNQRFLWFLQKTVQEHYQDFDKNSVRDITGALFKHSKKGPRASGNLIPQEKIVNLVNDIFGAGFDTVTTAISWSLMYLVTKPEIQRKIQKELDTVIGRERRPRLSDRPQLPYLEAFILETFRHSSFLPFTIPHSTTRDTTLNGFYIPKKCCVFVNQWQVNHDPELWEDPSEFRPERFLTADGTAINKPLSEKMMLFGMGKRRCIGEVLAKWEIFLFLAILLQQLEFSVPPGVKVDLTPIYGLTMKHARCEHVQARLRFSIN

[19] = system: Protein cereblon/GTPase KRas (Homo sapiens), P01116+Q96SW2 [G12D]; assay: PROTAC activity at CRBN/KRAS G12D mutant in human ASPC1 cells assessed as induction of KRAS G12D mutant degradation at 50 nM measured after 24 hrs by immunoblot analysis relative to control; format: cell-based
[20] = Metabolic stability in human liver microsomes assessed as half life at 1 uM preincubated for 3 mins with NADPH and measured up to 60 mins by LC-MS/MS analysis; format: ADME, Microsome; details: time < 63 min
[21] = system: CCRF-CEM; assay: Antiproliferative activity against human CCRF-CEM cells harbouring KRAS G12D mutant assessed as inhibition of cell growth measured after 72 hrs by Cell titer glo method; format: functional, cell-based
[22] = system: Panc 04.03; assay: Antiproliferative activity against human Panc 04.03 cells harbouring KRAS G12D mutant assessed as inhibition of cell growth measured after 72 hrs by Cell titer glo method; format: functional, cell-based
[23] = Drug concentration in male Balb/c nude mouse plasma xenografted with human PK-59 cells at 10 mg/kg, iv administered as single dose measured after 168 hrs by LC-MS/MS analysis; format: ADME, organism-based
[24] = system: Protein cereblon/GTPase KRas (Homo sapiens), P01116+Q96SW2 [G12D]; assay: In vivo PROTAC activity at CRBN/KRAS G12D mutant in male Balb/c nude mouse xenografted with human GP2d cells assessed as inhibition of DUSP4 level at 10 mg/kg, iv measured after 7 days; format: functional, organism-based; details: time 7.0 day
[25] = Volume of distribution at steady state in male Beagle dog at 1 mg/kg, iv measured up to 24 hrs by LC-MS/MS analysis; format: ADME, organism-based, Canis lupus familiaris; details: in vivo, read-out: Vdss
[26] = Antitumor activity against human GP2d cells xenografted in female Balb/c nude mouse model assessed as tumor growth inhibition at 10 mg/kg, iv QW administered […] and measured after 28 days relative to control; format: functional; details: 672 h, time 28 day, read-out: TGI
[27] = Stability in human hepatocyte assessed as half life at 100 uM measured up to 120 mins by LC-MS/MS analysis; format: ADME, cell-based; details: hepatocytes
[28] = AUC (0 to t) in male Sprague-Dawley rat at 1 mg/kg, iv measured up to 24 hrs by LC-MS/MS analysis; format: ADME, organism-based; details: in vivo
[29] = system: ASPC1; assay: Effect on GSPT1 level in human ASPC1 cells at 10 nM measured after 8 hrs by Western blot analysis; format: functional, cell-based
[30] = Antitumor activity against human GP2d cells xenografted in female Balb/c nude mouse model assessed as tumor growth inhibition at 3 mg/kg, iv QW measured after 28 days relative to control; format: functional; details: 672 h, time 28 day, read-out: TGI
[31] = Clearance in male ICR mouse at 1 mg/kg, iv measured up to 24 hrs by LC-MS/MS analysis; format: ADME, organism-based; details: in vivo

SMILES: C#Cc1c(F)ccc2cc(O)cc(-c3ncc4c(N5CC6CCC(C5)N6)nc(OCC5(CN6CCC7(CC6)CC(N6CCC(c8cc9c(cc8F)c(N8CCC(=O)NC8=O)nn9C)CC6)C7)CC5)nc4c3F)c12
- half-life [1]: 12.4 h
- inhibition (INH) [2]: Not_active
- CLint scaled at 1 µM [3]: 12.7 mL/min/kg
- half-life at 1 µM [4]: 8.88 h
- Activity [5]: Active; Compound Showed Stronger Antiproliferative Activity Compared To Mrtx1133
- Activity [6]: inactive
- inhibition in vivo at 1 mg/kg [7]: 98%
- Activity [8]: Non-toxic
- Activity [9]: Non-toxic
- Vd [10]: 12.7 L/kg
- Activity [11]: >30%
- Activity [12]: Active
- Activity [13]: Weak_effect
- inhibition (INH) [14]: Not_active
- Activity [15]: Weak_effect
- CLint scaled at 1 µM [16]: 4.3 mL/min/kg
- Activity [17]: 95%
- inhibition (INH) [18]: Not_active
- Activity [19]: 74%
- half-life at 1 µM [20]: 2.57 h
- Activity [21]: Active; Compound Showed Stronger Antiproliferative Activity Compared To Mrtx1133
- Activity [22]: Active; Compound Showed Stronger Antiproliferative Activity Compared To Mrtx1133
- concentration at 168 h [23]: 5.3 ng/mL
- Activity [24]: Active
- Vd [25]: 16 L/kg
- inhibition in vivo at 10 mg/kg [26]: 94.7%
- half-life at 100 µM [27]: 7.27 h
- AUC(0-t) at 24 h [28]: 0.531 µM·h
- Activity [29]: inactive
- inhibition in vivo at 3 mg/kg [30]: 96.9%
- clearance [31]: 39 mL/min/kg
